Source: patent EP1830856B1, “PREVENTING PATHOLOGICAL INCREASES IN THE RATE OF NERVE CELL SUICIDE IN IMMATURE NERVOUS SYSTEMS” (Olney, John W., priority 2004, dated 2006)

Columns and labels:
[1] = system: apoptosis induced by anti-convulsants such as phenytoin and carbamazepine; conditions: tissue culture model; only in a dose range well above the plasma levels considered therapeutic in humans; Nonaka et al., 1998; cited from earlier work
[2] = system: neuroapoptosis triggered by a cocktail of anesthetic drugs; conditions: immature rats undergoing anesthesia; subcutaneous; Beals et al, 2003; cited from earlier work
ERK = conditions: infant mice; within less than 30 minutes after ethanol administration
immature brains = conditions: Ikonomidou et al., 2000; cited from earlier work
AKT = conditions: infant mice; within 30 minutes after administration of ethanol

In the case of `[Li]` [Lithium], the antiapoptotic action [1] is given as “act as an antiapoptotic agent”.
In the case of `COc1ccc2[nH]cc(CCNC(C)=O)c2c1` [melatonin], the “protection against pathological neuroapoptosis (effects of pretreatment)” value [2] is listed as “only modest”.
For `CCO` [ethanol], the “activated isoforms of ERK” value (ERK) is listed as “rapid decrease”, the “neuroapoptosis responses in immature brains” value (immature brains) is listed as “triggers especially severe neuroapoptosis responses” and the “activated isoform of AKT” value (AKT) is listed as “marked suppression”.
